Source: patent US10300058B2, “Tyrosine kinase inhibitor and uses thereof” (Xuanzhu Pharma Co., Ltd., priority 2014, dated 2019)
One block for each compound: values may come before it.

Tests used:
[1] = system: H1975 cell (EGFR-T790M/L858R double mutation); assay: In vitro cytologic activity, Celltiter-Glo, H1975 cells; type: cell-based, human; conditions: for IC50: Homo sapiens, NCI-H1975, 72 h, 72 h, Celltiter-Glo
Protocol: (§1) 1.1 Preparation of Cell Suspension
(§2) Culture medium was removed from culture bottle;
(§3) PBS was added to wash the cells; • pancreatin was added for digestion, and the cells were collected by centrifugation; • the cells were resuspended in a culture medium containing 10% fetal bovine serum, counted and adjusted to a concentration of 2×10^4/mL or 3×10^4/mL (cell viability must be greater than 90%); • the cell suspension was added to a 96-well plate, at 100 μL for each well, i.e., 2000/well for H1975 cell; 3000/well for A431 cell; and • the cells were cultured at 37° C. in 5% CO2 incubator overnight.
(§4) Dilution of a compound in DMSO (or water for injection) • (1) The compound was 5-fold diluted with DMSO from 10 mM to 2 mM, and then 4-fold diluted from 2 mM, to get 10 concentrations; • High control (HC, control without compound inhibition): 0.5% DMSO; • Low control (LC, control with compound inhibition): 1000 nM.
(§5) i. To each well, 99 μL growth medium containing 10% FBS was added, and then 1 μL diluted compound was added, the total volume of the well was […], and the final concentration of the compound was measured.
(§6) The test plate was left at room temperature, and equilibrated for 30 min. 80 μL culture medium was discarded. 60 μL CTG reagent (Celltiter-Glo kit) was added, and shaked for 2 min in a fast shaker, and was placed at room temperature for 10 min. The values were read by Envision instrument.

[2] = system: A431 cell (wild-type EGFR gene); assay: In vitro cytologic activity, Celltiter-Glo, A431 cells; type: cell-based; conditions: Homo sapiens, A-431, 72 h
Protocol: as §1, §2, §3, §4, §5, §6

[3] = Pharmacokinetics in nude mouse; type: in vivo; conditions: female, BALB/c nude, plasma
Protocol: Test animal: female nude mouse (BALB/c), weight: 20-25 g/mouse.
Solvent for intraveneous injection (iv): 5% DMSO+10% PEG400+85% (28% HP-β-CD)
Solvent for intragastric administration (po): 2% HPC+0.1% Tween 80
0.1283 mL and 0.1059 mL 1M hydrochloric acid solution were separately added to adjust pH to 4.
Compound 2, 27: Compound 27 (3.18 mg) and Compound 2 (3.17 mg) were weighed, respectively, and solvent for intraveneous injection was added to prepare a clear and transparent solution at a theoretical concentration of 1.0 mg/mL.
After homogeneous dispersion, a suspension at a theoretical concentration of 1.0 mg/mL was obtained.
Collection time point: 0.083 h, 0.25 h, 0.5 h, 1 h, 2 h, 4 h, 6 h, 8 h after administration.
60 μL whole blood was collected from intraocular canthus at each time point, and was centrifuged at 8000 r/min for 6 min in a low-temperature centrifuge to separate plasma; the plasma was stored in a refrigerator at −80° C.
The plasma sample of Compound 2 was analyzed by means of protein precipitation: 10 μL plasma was transferred to a 1.5 mL EP tube, 10 μL blank plasma was added, and the mixture was mixed homogeneously under vortexing. 200 μL internal standard (acetonitrile solution containing 25 ng/mL CNX-2006) was added; the resultant mixture was vortexted for 3 min, and then centrifuged at 12000 rpm for 5 min; 150 μL supernatant was accurately taken, to which 50 μL purified water was added. The resultant mixture was vortexed for 3 min and analyzed by LC-MS/MS.

[4] = system: H1975 human non-small cell lung cancer xenograft; assay: Pharmacodynamics in vivo, H1975 xenograft tumor-bearing nude mice; set-up: species or system BALB/c nude mouse; conditions: PO; for TV (tumor volume) / Body weight After administration / Body weight Before administration: mean ± standard error
Source text: Genus: Rodent, Line: BALB/c nude, age: 6-8 weeks, gender: female, body weight: 18-22 g. Provider of experimental animals: Beijing Ankaiyibo Biological Technology Co. Ltd., Production license No. SCXK(Jing) 2012-0009. Quality Certificate No. 11402400000256 […] The tumor cells in logarithmic growth phase were used in tumor inoculation in vivo. […] When the tumor grew into a volume of about 100 mm^3, the animals were grouped and administered, 8 mice per group. […] Test compound solutions were prepared immediately before administration every day. [table] Vernier caliper was used to measure the volume of tumor twice a week. The long diameter and short diameter of tumor were measured. The volume was calculated by the formula: volume=0.5×long diameter×short diameter^2. According to the measurement results, relative tumor volume (RTV) and relative tumor volume increasing rate (T/C) were calculated. RTV=Vt/V0, wherein Vt is the average value of tumor volume on day t after grouping and administration, V0 is the average value of tumor volume at the day when grouping. T/C=TRTV/CRTV×100%, wherein TRTV is the RTV in the treatment group, and CRTV is the RTV in the solvent control group. […] One-Way ANOVA test was carried out by SPSS17.0 statistic software. Tumor volume was analysed in statistics among groups. P<0.05 is indicative of significant difference.

wild-type EGFR (WT EGFR) = wild-type EGFR (WT EGFR) (Homo sapiens (Human), UniProt P00533); assay: Mobility Shift Assay, in vitro enzyme-inhibiting activity, wild-type EGFR; type: biochemical; conditions: Km ATP
Protocol: (§7) 1. Preparation of Reagents
(§8) 2. Preparation of a Compound Solution
(§9) (1) To the second well of a 96-well plate, 5 μL 10 mM compound (dissolved in DMSO) was added, and 95 μL 100% DMSO was added to prepare 100 μL 0.5 mM compound.
(§10) (2) To other wells, 60 μL 100% DMSO was added. 20 μL compound from the second well was added to the third well, and 4-fold dilution was further performed to get 10 diluted concentrations.
(§11) (3) To the first well and the twelfth well of the 96-well plate, 100 μL 100% DMSO was separately added, and the two wells were used as control wells.
(§12) (4) 10 μL from each well of the 96-well plate was added to another 96-well plate, and 90 μL 1-fold kinase buffer was added.
(§13) (5) 5 μL from the 96-well plate was added to another 384-well plate, for example, transferred from A1 well of the 96-well plate to A1 and A2 wells of the 384-well plate, and transferred from A2 well of the 96-well plate to A3 and A4 wells of the 384-well plate, and so on.
(§14) To 384-well plate, 10 μL 2.5-fold enzyme solution was added, and incubated at room temperature for 10 min.
(§15) (5) Kinase reaction and stop
(§16) After incubation at 28° C. for a period of time (depending on kinase), 25 μL stop solution was added.
(§17) 4. Data on percent conversion was read by Caliper.
(§18) (1) Data on enzyme activity was obtained by Caliper program;
(§19) (2) Inhibition rate of enzyme activity was calculated from the data on enzyme activity by the following formula: Inhibition rate(%)=(maximal value−the measured value of a test compound)/(maximal value-minimal value)×100,
(§20) wherein, the maximal value represents the measured value of DMSO control; and the minimal value represents the measured value of blank control.
(§21) (3) Calculation of IC50 value by XLFit excel.

EGFR T790M = EGFR T790M (Homo sapiens (Human), UniProt P00533, T790M); assay: Mobility Shift Assay, in vitro enzyme-inhibiting activity, EGFR T790M; type: biochemical; conditions: Table 1
Chain of EGFR T790M (P00533 25-1210 T790M): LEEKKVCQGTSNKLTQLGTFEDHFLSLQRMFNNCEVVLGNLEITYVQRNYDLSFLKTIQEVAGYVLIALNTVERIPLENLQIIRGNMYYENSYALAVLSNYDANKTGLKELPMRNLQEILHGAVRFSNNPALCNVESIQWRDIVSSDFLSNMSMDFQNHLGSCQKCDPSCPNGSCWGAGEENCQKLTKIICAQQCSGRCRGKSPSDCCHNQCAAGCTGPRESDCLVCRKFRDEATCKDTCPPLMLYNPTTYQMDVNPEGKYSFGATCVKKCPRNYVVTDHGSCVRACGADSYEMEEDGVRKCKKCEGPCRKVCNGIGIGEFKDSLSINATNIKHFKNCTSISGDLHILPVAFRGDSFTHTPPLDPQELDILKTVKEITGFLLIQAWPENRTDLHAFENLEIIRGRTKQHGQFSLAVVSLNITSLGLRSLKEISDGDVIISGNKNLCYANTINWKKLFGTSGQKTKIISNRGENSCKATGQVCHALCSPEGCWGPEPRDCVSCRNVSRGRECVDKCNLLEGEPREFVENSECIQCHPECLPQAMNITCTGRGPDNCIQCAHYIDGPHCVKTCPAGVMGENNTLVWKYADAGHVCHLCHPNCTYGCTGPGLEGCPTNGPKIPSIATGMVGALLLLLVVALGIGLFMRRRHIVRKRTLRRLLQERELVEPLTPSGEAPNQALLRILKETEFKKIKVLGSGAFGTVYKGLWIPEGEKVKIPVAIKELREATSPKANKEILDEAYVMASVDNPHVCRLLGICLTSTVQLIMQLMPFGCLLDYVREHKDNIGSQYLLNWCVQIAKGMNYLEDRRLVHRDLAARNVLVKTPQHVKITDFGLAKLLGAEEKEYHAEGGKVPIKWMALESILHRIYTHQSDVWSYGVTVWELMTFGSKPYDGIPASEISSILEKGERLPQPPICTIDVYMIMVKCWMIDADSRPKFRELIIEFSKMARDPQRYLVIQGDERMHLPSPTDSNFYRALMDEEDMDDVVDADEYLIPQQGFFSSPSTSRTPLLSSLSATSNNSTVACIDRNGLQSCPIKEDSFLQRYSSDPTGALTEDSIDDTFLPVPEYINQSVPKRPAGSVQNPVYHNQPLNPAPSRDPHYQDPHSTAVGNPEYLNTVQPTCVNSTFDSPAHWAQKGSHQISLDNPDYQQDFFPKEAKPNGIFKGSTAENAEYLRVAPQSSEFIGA
Protocol: as §7, §8, §9, §10, §11, §12, §13, §14, §15, §16, §17, §18, §19, §20, §21

EGFR L858R = EGFR L858R (Homo sapiens (Human), UniProt P00533, L858R); assay: Mobility Shift Assay, in vitro enzyme-inhibiting activity, EGFR L858R; type: biochemical; conditions: Table 5
Chain of EGFR L858R (P00533 25-1210 L858R): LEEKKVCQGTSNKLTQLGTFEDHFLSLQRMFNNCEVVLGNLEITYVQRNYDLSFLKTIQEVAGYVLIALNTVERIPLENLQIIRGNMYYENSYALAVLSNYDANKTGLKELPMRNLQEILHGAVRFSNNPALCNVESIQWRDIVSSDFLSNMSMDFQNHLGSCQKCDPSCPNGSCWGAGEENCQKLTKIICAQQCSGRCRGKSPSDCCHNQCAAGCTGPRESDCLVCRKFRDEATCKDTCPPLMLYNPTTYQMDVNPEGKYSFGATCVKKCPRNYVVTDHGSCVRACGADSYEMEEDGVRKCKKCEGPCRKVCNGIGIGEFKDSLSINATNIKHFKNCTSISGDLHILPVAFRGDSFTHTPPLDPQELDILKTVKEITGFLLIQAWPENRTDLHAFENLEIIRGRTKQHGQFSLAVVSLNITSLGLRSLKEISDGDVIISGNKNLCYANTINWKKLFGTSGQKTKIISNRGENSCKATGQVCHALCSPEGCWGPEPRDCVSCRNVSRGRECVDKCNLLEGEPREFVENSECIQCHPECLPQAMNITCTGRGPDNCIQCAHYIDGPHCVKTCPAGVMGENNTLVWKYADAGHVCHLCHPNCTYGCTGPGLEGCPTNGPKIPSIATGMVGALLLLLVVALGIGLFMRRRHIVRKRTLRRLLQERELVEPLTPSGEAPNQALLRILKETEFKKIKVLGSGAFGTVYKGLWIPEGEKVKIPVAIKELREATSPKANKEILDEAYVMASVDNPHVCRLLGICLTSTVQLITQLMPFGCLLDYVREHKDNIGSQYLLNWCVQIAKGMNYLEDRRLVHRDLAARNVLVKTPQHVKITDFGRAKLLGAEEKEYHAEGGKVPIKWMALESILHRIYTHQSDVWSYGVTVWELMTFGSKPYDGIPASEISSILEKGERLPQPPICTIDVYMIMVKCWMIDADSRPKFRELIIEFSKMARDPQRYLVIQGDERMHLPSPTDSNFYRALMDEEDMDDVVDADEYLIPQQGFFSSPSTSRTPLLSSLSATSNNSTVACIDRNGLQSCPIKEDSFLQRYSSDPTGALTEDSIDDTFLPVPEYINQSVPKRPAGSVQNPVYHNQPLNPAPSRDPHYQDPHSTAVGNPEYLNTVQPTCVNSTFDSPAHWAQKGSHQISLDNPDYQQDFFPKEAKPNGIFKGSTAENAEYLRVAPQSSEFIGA
Protocol: as §7, §8, §9, §10, §11, §12, §13, §14, §15, §16, §17, §18, §19, §20, §21

EGFR T790M-L858R = EGFR T790M-L858R (Homo sapiens (Human), UniProt P00533, L858R/T790M); assay: Mobility Shift Assay, in vitro enzyme-inhibiting activity, EGFR T790M-L858R; type: biochemical; conditions: Table 5
Chain of EGFR T790M-L858R (P00533 25-1210 T790M/L858R): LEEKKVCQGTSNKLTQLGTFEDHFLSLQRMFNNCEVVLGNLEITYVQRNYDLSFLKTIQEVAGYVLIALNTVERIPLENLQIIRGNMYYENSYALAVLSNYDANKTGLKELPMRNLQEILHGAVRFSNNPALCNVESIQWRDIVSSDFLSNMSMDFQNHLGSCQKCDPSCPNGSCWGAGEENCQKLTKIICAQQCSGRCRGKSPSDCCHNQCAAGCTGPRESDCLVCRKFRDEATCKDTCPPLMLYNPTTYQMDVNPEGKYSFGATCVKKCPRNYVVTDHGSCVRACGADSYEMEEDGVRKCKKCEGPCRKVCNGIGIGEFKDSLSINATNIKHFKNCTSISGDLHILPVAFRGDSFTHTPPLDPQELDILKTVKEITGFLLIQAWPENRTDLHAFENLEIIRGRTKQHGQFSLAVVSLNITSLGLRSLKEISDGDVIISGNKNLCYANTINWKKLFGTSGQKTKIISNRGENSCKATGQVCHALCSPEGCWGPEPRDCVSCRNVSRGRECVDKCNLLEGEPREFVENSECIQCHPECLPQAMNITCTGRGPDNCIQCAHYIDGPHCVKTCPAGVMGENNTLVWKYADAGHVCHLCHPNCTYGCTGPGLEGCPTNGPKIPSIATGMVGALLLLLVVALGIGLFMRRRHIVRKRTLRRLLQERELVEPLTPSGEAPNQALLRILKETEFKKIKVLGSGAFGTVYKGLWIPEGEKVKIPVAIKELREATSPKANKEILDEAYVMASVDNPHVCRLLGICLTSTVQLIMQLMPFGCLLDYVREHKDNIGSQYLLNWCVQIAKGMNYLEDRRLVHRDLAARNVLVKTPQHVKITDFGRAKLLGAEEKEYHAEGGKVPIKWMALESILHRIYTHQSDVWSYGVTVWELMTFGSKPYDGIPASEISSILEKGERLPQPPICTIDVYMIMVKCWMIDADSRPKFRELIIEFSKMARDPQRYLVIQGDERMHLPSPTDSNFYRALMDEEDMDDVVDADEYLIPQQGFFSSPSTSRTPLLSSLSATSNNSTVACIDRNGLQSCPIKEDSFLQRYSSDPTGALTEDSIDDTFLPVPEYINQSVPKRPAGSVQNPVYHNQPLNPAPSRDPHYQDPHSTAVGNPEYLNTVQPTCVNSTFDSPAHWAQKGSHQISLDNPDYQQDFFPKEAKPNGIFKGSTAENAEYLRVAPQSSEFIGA
Protocol: as §7, §8, §9, §10, §11, §12, §13, §14, §15, §16, §17, §18, §19, §20, §21

EGFR (d746-750) = EGFR (d746-750) (Homo sapiens (Human), UniProt P00533, DEL746-750); assay: Mobility Shift Assay, in vitro enzyme-inhibiting activity, EGFR (d746-750); type: biochemical; conditions: Table 5
Chain of EGFR (d746-750) (P00533 other isoform, or with tags, fused parts or gaps del 1-668/del 746-750 limits assumed): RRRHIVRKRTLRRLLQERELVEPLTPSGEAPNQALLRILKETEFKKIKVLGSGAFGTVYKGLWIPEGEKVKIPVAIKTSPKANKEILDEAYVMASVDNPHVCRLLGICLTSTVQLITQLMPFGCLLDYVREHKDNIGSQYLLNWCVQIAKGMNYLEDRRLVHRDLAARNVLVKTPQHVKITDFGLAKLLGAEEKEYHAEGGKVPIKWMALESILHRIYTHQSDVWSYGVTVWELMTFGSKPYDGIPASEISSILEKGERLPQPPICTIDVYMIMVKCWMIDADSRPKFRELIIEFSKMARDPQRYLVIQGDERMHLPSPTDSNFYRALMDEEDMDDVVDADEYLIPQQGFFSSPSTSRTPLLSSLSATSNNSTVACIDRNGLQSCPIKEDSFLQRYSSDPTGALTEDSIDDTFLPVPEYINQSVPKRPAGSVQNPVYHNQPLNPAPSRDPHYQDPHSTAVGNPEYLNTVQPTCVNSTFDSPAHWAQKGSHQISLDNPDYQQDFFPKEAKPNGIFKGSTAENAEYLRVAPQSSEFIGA
Protocol: as §7, §8, §9, §10, §11, §12, §13, §14, §15, §16, §17, §18, §19, §20, §21

Structure (SMILES): C=CC(=O)Nc1cccc(Nc2nc(Nc3ccc(N4CCN(C(C)=O)CC4)cc3OC)ncc2C(F)(F)F)c1 [CO-1686, reference compound]
- IC50 ([1]; Table 9): 107 nM
- IC50 ([1]; Table 10, unit inferred): 465 nM
- IC50 ([2]; Table 9): 911 nM
- IC50 ([2]; Table 10, unit inferred): 2250 nM
- AUC(0-t) ([3]; iv, 5 mg/kg): 4070 ng·h/mL
- clearance ([3]; iv, 5 mg/kg): 20.5 mL/min/kg
- AUC(0-t) ([3]; po, 13.2 mg/kg): 2380 ng·h/mL
- bioavailability ([3]; po, 13.2 mg/kg, read-out: F (absolute bioavailability)): 22.1%
- TGI (tumor growth-inhibiting rate) ([4]; Table 17, 30 mg/kg): 38.8%
- TV (tumor volume) ([4]; Table 17, 30 mg/kg, 19 days after inoculation): 666 ± 30 mm^3
- Body weight After administration ([4]; Table 17, 30 mg/kg): 22.1 ± 0.3 g
- Body weight Before administration ([4]; Table 17, 30 mg/kg): 20.6 ± 0.3 g
- TGI (tumor growth-inhibiting rate) ([4]; Table 17, 100 mg/kg): 71.2%
- TV (tumor volume) ([4]; Table 17, 100 mg/kg, 19 days after inoculation): 317 ± 44 mm^3
- Body weight After administration ([4]; Table 17, 100 mg/kg): 21.5 ± 0.5 g
- Body weight Before administration ([4]; Table 17, 100 mg/kg): 20.6 ± 0.4 g
- TGI (tumor growth-inhibiting rate) ([4]; Table 18, 10 mg/kg, QD × 18): 30.8%
- TV (tumor volume) ([4]; Table 18, 10 mg/kg, QD × 18, 23 days after inoculation): 729 ± 78 mm^3
- Body weight After administration ([4]; Table 18, 10 mg/kg, QD × 18): 22.4 ± 0.5 g
- Body weight Before administration ([4]; Table 18, 10 mg/kg, QD × 18): 20.7 ± 0.4 g
- TGI (tumor growth-inhibiting rate) ([4]; Table 18, 30 mg/kg, QD × 18): 55.4%
- TV (tumor volume) ([4]; Table 18, 30 mg/kg, QD × 18, 23 days after inoculation): 485 ± 65 mm^3
- Body weight After administration ([4]; Table 18, 30 mg/kg, QD × 18): 22.4 ± 0.3 g
- Body weight Before administration ([4]; Table 18, 30 mg/kg, QD × 18): 21.8 ± 0.3 g

- IC50 (wild-type EGFR (WT EGFR); Table 1): 323 nM
- IC50 (wild-type EGFR (WT EGFR); Table 5): 240 nM
- IC50 (EGFR T790M; Km ATP): 5.7 nM
- Selectivity (WT/T790M) (EGFR T790M; ratio of IC50): 56.7
- IC50 (EGFR L858R; Km ATP): 84.7 nM
- Selectivity WT/L858R (EGFR L858R; ratio of IC50): 2.8
- IC50 (EGFR T790M-L858R; Km ATP): 4.4 nM
- Selectivity WT/T790M-L858R (EGFR T790M-L858R; ratio of IC50): 54.3
- IC50 (EGFR (d746-750); Km ATP): 20.3 nM
- Selectivity WT/d746-750 (EGFR (d746-750); ratio of IC50): 11.8
- IC50 ([1]; Table 9): 54.2 nM
- IC50 ([2]; Table 9): 448 nM
Structure (SMILES): C=CC(=O)Nc1cccc(Nc2nc(Nc3ccc(N4CCN(C(C)=O)CC4)cc3OC)ncc2C(F)(F)F)n1 [Compound 1, N-(6-((2-((4-(4-acetylpiperazin-1-yl)-2-methoxyphenyl)amino)-5-(trifluoromethyl)pyrimidin-4-yl)amino)pyridin-2-yl)acrylamide]
- Selectivity (A431/H1975) ([1]; Table 9, ratio of IC50): 8.3
